Legend:
[1] = test system: E. cloacae UFR38 (CTX-M-15, NDM-1); assay: MIC of compounds and synergy with ceftazidime (broth microdilution); assay type: cell-based; conditions: strain UFR38 (E. cloacae); for MIC: Enterobacter cloacae, 18 h, read-out: MIC compounds of the invention alone; for MIC, combination of CAZ and compounds of the invention: MIC of ceftazidime with compound fixed at 4 μg/mL
Procedure: (§1) Briefly, compounds alone according to the invention were prepared in DMSO and spotted (2 μL each) on sterile polystyrene plates (Corning, 3788). […] Microplates were incubated for 16-20 h at 35° C. in ambient air. The MIC of the compounds was defined as the lowest concentration of said compounds that prevented bacterial growth as read by visual inspection.

[2] = test system: P. aeruginosa UFR59 (IMP-29); assay: as above; assay type: cell-based; conditions: strain UFR59 (P. aeruginosa); for MIC: Pseudomonas aeruginosa, 18 h, read-out: MIC compounds of the invention alone
Procedure: as §1

E. coli RGN238 (OXA-1) = assay: as above; assay type: cell-based; conditions: strain RGN238 (E. coli); for MIC: Escherichia coli, 18 h, read-out: MIC compounds of the invention alone; for MIC, combination of CAZ and compounds of the invention: MIC of ceftazidime with compound fixed at 4 μg/mL
Procedure: as §1

[3] = test system: P. aeruginosa CIP107051 (TEM-24); assay: as above; assay type: cell-based; conditions: strain CIP107051 (P. aeruginosa); for MIC, combination of CAZ and compounds of the invention: MIC of ceftazidime with compound fixed at 4 μg/mL; for MIC: Pseudomonas aeruginosa, 18 h, read-out: MIC compounds of the invention alone
Procedure: as §1

[4] = test system: K. pneumoniae 6299 (TEM-1, SHV-11, OXA-163); assay: as above; assay type: cell-based; conditions: strain 6299 (K. pneumoniae); for MIC: Klebsiella pneumoniae, 18 h, read-out: MIC compounds of the invention alone; for MIC, combination of CAZ and compounds of the invention: MIC of ceftazidime with compound fixed at 4 μg/mL
Procedure: as §1

[5] = test system: E. coli UFR18 (CTX-M-15, OXA-204); assay: as above; assay type: cell-based; conditions: strain UFR18 (E. coli); for MIC: Escherichia coli, 18 h, read-out: MIC compounds of the invention alone; for MIC, combination of CAZ and compounds of the invention: MIC of ceftazidime with compound fixed at 4 μg/mL
Procedure: as §1

[6] = test system: K. pneumoniae UFR77 (CMY-2); assay: as above; assay type: cell-based; conditions: strain UFR77 (K. pneumoniae); for MIC: Klebsiella pneumoniae, 18 h, read-out: MIC compounds of the invention alone; for MIC, combination of CAZ and compounds of the invention: MIC of ceftazidime with compound fixed at 4 μg/mL
Procedure: as §1

[7] = test system: P. aeruginosa UFR35 (OXA-23); assay: as above; assay type: cell-based; conditions: strain UFR35 (P. aeruginosa); for MIC: Pseudomonas aeruginosa, 18 h, read-out: MIC compounds of the invention alone
Procedure: as §1

[8] = test system: C. murliniae 210102 (VIM-4); assay: as above; assay type: cell-based; conditions: strain 210102 (C. murliniae); for MIC: 18 h, read-out: MIC compounds of the invention alone; for MIC, combination of CAZ and compounds of the invention: MIC of ceftazidime with compound fixed at 4 μg/mL
Procedure: as §1

[9] = test system: E. coli 131119 (TEM-1, OXA-48); assay: as above; assay type: cell-based; conditions: strain 131119 (E. coli); for MIC: Escherichia coli, 18 h, read-out: MIC compounds of the invention alone; for MIC, combination of CAZ and compounds of the invention: MIC of ceftazidime with compound fixed at 4 μg/mL
Procedure: as §1

[10] = test system: E. cloacae UFR70 (TEM-1, CTX-M-15, CMY-2, OXA-1, Porin loss); assay: as above; assay type: cell-based; conditions: for MIC: Enterobacter cloacae, 18 h, read-out: MIC compounds of the invention alone; for MIC, combination of CAZ and compounds of the invention: MIC of ceftazidime with compound fixed at 4 μg/mL, strain UFR70 (E. cloacae)
Procedure: as §1

[11] = test system: K. pneumoniae BAA-1898 (TEM-1, SHV-11, SHV-12, KPC-2); assay: as above; assay type: cell-based; conditions: strain BAA-1898 (K. pneumoniae); for MIC: Klebsiella pneumoniae, BAA1898, read-out: MIC compounds of the invention alone; for MIC, combination of CAZ and compounds of the invention: MIC of ceftazidime with compound fixed at 4 μg/mL
Procedure: as §1

[12] = test system: P. aeruginosa CIP105250 (OXA-15); assay: as above; assay type: cell-based; conditions: strain CIP105250 (P. aeruginosa); for MIC, combination of CAZ and compounds of the invention: MIC of ceftazidime with compound fixed at 4 μg/mL; for MIC: Pseudomonas aeruginosa, 18 h, read-out: MIC compounds of the invention alone
Procedure: as §1

[13] = test system: P. aeruginosa UFR47 (VIM-1); assay: as above; assay type: cell-based; conditions: strain UFR47 (P. aeruginosa); for MIC: Pseudomonas aeruginosa, 18 h, read-out: MIC compounds of the invention alone
Procedure: as §1

[14] = test system: E. cloacae P99 (Derepressed ampC); assay: as above; assay type: cell-based; conditions: strain P99 (E. cloacae); for MIC: Enterobacter cloacae, 18 h, read-out: MIC compounds of the invention alone; for MIC, combination of CAZ and compounds of the invention: MIC of ceftazidime with compound fixed at 4 μg/mL
Procedure: as §1

[15] = test system: E. coli UFR52 (TEM-1, SHV-12, IMP-8); assay: as above; assay type: cell-based; conditions: strain UFR52 (E. coli); for MIC: Escherichia coli, 18 h, read-out: MIC compounds of the invention alone; for MIC, combination of CAZ and compounds of the invention: MIC of ceftazidime with compound fixed at 4 μg/mL
Procedure: as §1

[16] = test system: E. coli UFR32 (TEM-1, VEB-1, OXA-10); assay: as above; assay type: cell-based; conditions: strain UFR32 (E. coli); for MIC: Escherichia coli, 18 h, read-out: MIC compounds of the invention alone; for MIC, combination of CAZ and compounds of the invention: MIC of ceftazidime with compound fixed at 4 μg/mL
Procedure: as §1

[17] = test system: K. pneumoniae UFR24 (TEM-1, SHV-2, SHV-11, OXA-1, OXA-48, OXA-47); assay: as above; assay type: cell-based; conditions: strain UFR24 (K. pneumoniae); for MIC: Klebsiella pneumoniae, 18 h, read-out: MIC compounds of the invention alone; for MIC, combination of CAZ and compounds of the invention: MIC of ceftazidime with compound fixed at 4 μg/mL
Procedure: as §1

OXA-11 = biological target: T1, OXA-11 (Pseudomonas aeruginosa, UniProt Q06778); assay: β-lactamase inhibitory activity, determination of IC50 (nitrocefin hydrolysis); assay type: biochemical
T1 construct: made in house; host or cells: E. coli
T1 sequence (Q06778 21-266): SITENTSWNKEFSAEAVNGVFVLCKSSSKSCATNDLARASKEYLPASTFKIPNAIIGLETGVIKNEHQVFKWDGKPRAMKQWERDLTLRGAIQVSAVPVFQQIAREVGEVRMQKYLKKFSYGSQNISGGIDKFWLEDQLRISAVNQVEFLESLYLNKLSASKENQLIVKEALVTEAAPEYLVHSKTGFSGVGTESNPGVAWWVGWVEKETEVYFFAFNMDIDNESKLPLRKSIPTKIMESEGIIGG

OXA-48 = biological target: T2, OXA-48 (Klebsiella pneumoniae, UniProt Q6XEC0); assay: as above; assay type: biochemical
T2 construct: made in house; host or cells: E. coli
T2 sequence (Q6XEC0 23-265 limits assumed): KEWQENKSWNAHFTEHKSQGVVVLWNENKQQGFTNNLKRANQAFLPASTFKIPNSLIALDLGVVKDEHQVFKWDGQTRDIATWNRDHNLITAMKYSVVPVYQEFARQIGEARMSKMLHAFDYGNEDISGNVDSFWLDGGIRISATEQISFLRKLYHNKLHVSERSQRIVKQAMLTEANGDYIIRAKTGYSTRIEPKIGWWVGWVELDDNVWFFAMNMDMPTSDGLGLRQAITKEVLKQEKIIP

OXA-1 = biological target: T3, OXA-1 (Escherichia coli, UniProt P13661); assay: as above; assay type: biochemical
T3 construct: made in house; host or cells: E. coli
T3 sequence (P13661 26-276): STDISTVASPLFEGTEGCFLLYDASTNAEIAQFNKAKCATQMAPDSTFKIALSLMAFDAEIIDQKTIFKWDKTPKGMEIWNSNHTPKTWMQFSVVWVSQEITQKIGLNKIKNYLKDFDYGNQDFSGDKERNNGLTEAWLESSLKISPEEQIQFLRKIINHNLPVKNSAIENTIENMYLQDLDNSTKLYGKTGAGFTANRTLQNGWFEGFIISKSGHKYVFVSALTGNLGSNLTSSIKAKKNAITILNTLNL

[18] = test system: K. oxytoca UFR21 (TEM-1, CTX-M-15, OXA-48); assay: microbe, parasite or virus in culture; assay type: cell-based; conditions: for MIC: Klebsiella oxytoca, 18 h, read-out: MIC compounds of the invention alone
[19] = test system: K. pneumoniae UFR68 (TEM-1, SHV-11, CTX-M-15, KPC-3); assay: microbe, parasite or virus in culture; assay type: cell-based; conditions: for MIC: Klebsiella pneumoniae, 18 h, read-out: MIC compounds of the invention alone
[20] = test system: K. pneumoniae 200047 (TEM-1, SHV-32, CTX-M-15, OXA-1); assay: microbe, parasite or virus in culture; assay type: cell-based; conditions: for MIC: Klebsiella pneumoniae, 18 h, read-out: MIC compounds of the invention alone
[21] = MIC of ceftazidime with compound fixed at 4 μg/mL

## NC[C@@H]1C(c2nccs2)=C[C@@H]2CN1C(=O)N2OS(=O)(=O)[O-].O=C(O)C(F)(F)F.[Na+] [Example 2, Sodium and 2,2,2-trifluoroacetate [(2S,5R)-2-(azaniumylmethyl)-7-oxo-3-thiazol-2-yl-1,6-diazabicyclo[3.2.1]oct-3-en-6-yl] sulfate]
[1]
  MIC: 32 µg/mL
  MIC, combination of CAZ and compounds of the invention: <0.25 µg/mL
[2]; [21]
  MIC, combination of CAZ and compounds of the invention: <0.25 µg/mL
[2]
  MIC: 8 µg/mL
E. coli RGN238 (OXA-1)
  MIC: 8 µg/mL
  MIC, combination of CAZ and compounds of the invention: ≤0.125 µg/mL
[3]
  MIC, combination of CAZ and compounds of the invention: <0.25 µg/mL
  MIC: 2 µg/mL
[4]
  MIC: > 32 µg/mL
  MIC, combination of CAZ and compounds of the invention: 4 µg/mL
[5]
  MIC: ≤ 0.016 µg/mL
  MIC, combination of CAZ and compounds of the invention: <0.25 µg/mL
[6]
  MIC: 32 µg/mL
  MIC, combination of CAZ and compounds of the invention: 2 µg/mL
[7]; [21]
  MIC, combination of CAZ and compounds of the invention: <0.25 µg/mL
[7]
  MIC: 2 µg/mL
[8]
  MIC: 4 µg/mL
  MIC, combination of CAZ and compounds of the invention: ≤0.125 µg/mL
[9]
  MIC: ≤ 0.016 µg/mL
  MIC, combination of CAZ and compounds of the invention: <0.25 µg/mL
[10]
  MIC: 4 µg/mL
  MIC, combination of CAZ and compounds of the invention: <0.25 µg/mL
[11]
  MIC: 16 µg/mL
  MIC, combination of CAZ and compounds of the invention: ≤0.125 µg/mL
[12]
  MIC, combination of CAZ and compounds of the invention: ≤0.125 µg/mL
  MIC: 8 µg/mL
[13]; [21]
  MIC, combination of CAZ and compounds of the invention: <0.25 µg/mL
[13]
  MIC: 2 µg/mL
[14]
  MIC: ≤ 0.016 µg/mL
  MIC, combination of CAZ and compounds of the invention: <0.25 µg/mL
[15]
  MIC: 4 µg/mL
  MIC, combination of CAZ and compounds of the invention: <0.25 µg/mL
[16]
  MIC: ≤ 0.016 µg/mL
  MIC, combination of CAZ and compounds of the invention: <0.25 µg/mL
[17]
  MIC: > 32 µg/mL
  MIC, combination of CAZ and compounds of the invention: 0.25 µg/mL
OXA-11
  IC50: 6.8 nM
OXA-48
  IC50: 3.5 nM
OXA-1
  IC50: 6.1 nM
[18]
  MIC: 16 µg/mL
[19]
  MIC: 16 µg/mL
[20]
  MIC: 16 µg/mL

## NC[C@@H]1C(c2ncco2)=C[C@@H]2CN1C(=O)N2OS(=O)(=O)[O-].O=C(O)C(F)(F)F.[Na+] [Example 5, Sodium and 2,2,2-trifluoroacetate [(2S,5R)-2-(azaniumylmethyl)-7-oxo-3-oxazol-2-yl-1,6-diazabicyclo[3.2.1]oct-3-en-6-yl] sulfate]
[1]
  MIC: ≤ 0.016 µg/mL
  MIC, combination of CAZ and compounds of the invention: <0.25 µg/mL
[2]
  MIC: 2 µg/mL
E. coli RGN238 (OXA-1)
  MIC: 16 µg/mL
  MIC, combination of CAZ and compounds of the invention: <0.25 µg/mL
[3]
  MIC, combination of CAZ and compounds of the invention: <0.25 µg/mL
  MIC: 2 µg/mL
[4]
  MIC: > 32 µg/mL
  MIC, combination of CAZ and compounds of the invention: 8 µg/mL
[5]
  MIC: ≤ 0.016 µg/mL
  MIC, combination of CAZ and compounds of the invention: <0.25 µg/mL
[6]
  MIC: > 32 µg/mL
  MIC, combination of CAZ and compounds of the invention: <0.25 µg/mL
[7]
  MIC: 0.25 µg/mL
[8]
  MIC: 4 µg/mL
  MIC, combination of CAZ and compounds of the invention: <0.25 µg/mL
[9]
  MIC: 0.063 µg/mL
  MIC, combination of CAZ and compounds of the invention: <0.25 µg/mL
[10]
  MIC: 8 µg/mL
  MIC, combination of CAZ and compounds of the invention: <0.25 µg/mL
[11]
  MIC: 16 µg/mL
  MIC, combination of CAZ and compounds of the invention: ≤0.125 µg/mL
[12]
  MIC, combination of CAZ and compounds of the invention: <0.25 µg/mL
  MIC: 4 µg/mL
[13]
  MIC: 1 µg/mL
[14]
  MIC: ≤ 0.016 µg/mL
  MIC, combination of CAZ and compounds of the invention: <0.25 µg/mL
[15]
  MIC: 4 µg/mL
  MIC, combination of CAZ and compounds of the invention: <0.25 µg/mL
[16]
  MIC: 0.063 µg/mL
  MIC, combination of CAZ and compounds of the invention: <0.25 µg/mL
[17]
  MIC: > 32 µg/mL
  MIC, combination of CAZ and compounds of the invention: <0.25 µg/mL
OXA-11
  IC50: 430 nM
OXA-48
  IC50: 180 nM
OXA-1
  IC50: 370 nM
[18]
  MIC: 32 µg/mL
[18]; MIC of ceftazidime with compound fixed at 4 μg/mL, strain UFR21 (K. oxytoca)
  MIC, combination of CAZ and compounds of the invention: <0.25 µg/mL
[19]
  MIC: 32 µg/mL
[19]; MIC of ceftazidime with compound fixed at 4 μg/mL, strain UFR68 (K. pneumoniae)
  MIC, combination of CAZ and compounds of the invention: ≤0.25 µg/mL
[20]
  MIC: 16 µg/mL
[20]; MIC of ceftazidime with compound fixed at 4 μg/mL, strain 200047 (K. pneumoniae)
  MIC, combination of CAZ and compounds of the invention: <0.25 µg/mL

Reference: patent US10072006B2 (MUTABILIS, priority 2015, dated 2018)
